Laboratory results published in patent publication US20220041532A1, “HYDROFLUOROOLEFINS AND METHODS OF USING SAME” (3M INNOVATIVE PROPERTIES COMPANY, priority 2018, published 2022).

Key:
[1] = Largest Soluble Hydrocarbon (LSH) test; assay type: physicochemical; conditions: hydrofluoroolefin:hydrocarbon about 1:1 to 1:2 by weight
Experimental: Largest Soluble Hydrocarbon (LSH): The LSH of each hydrofluoroolefin compound was determined by mixing the compound with hydrocarbons of varying molecular weight (CnH2n+2, where n=9 to 24) in a hydrofluoroolefin:hydrocarbon ratio of about 1:1 to 1:2 by weight at room temperature (25° C.) and at 50° C. […] A larger value of n is interpreted herein to indicate a greater ability of the hydrofluoroolefin to clean hydrocarbons.
The results presented in Table 2 indicate that the hydrofluoroolefins of the present invention are highly suitable fluids for cleaning applications.

[2] = Atmospheric lifetime from rates of reaction with hydroxyl radicals; assay type: physicochemical; conditions: Degrades by direct photolysis and ozonolysis; value stated as 'Likely'
Experimental: Atmospheric lifetime: The atmospheric lifetimes of hydrobromofluoroolefin Examples 1-3 were determined from their rates of reaction with hydroxyl radicals. The pseudo-first order rate for the reaction of the gaseous hydrobromofluoroolefin with hydroxyl radical was measured in a series of experiments relative to reference compounds such as chloromethane and ethane. The measurements were performed in a 5.7 L, heated FTIR gas cell equipped with a polished semiconductor-grade quartz window. An Oriel Instruments UV Lamp, Model 66921 equipped with a 480W mercury-xenon bulb was used to generate hydroxyl radicals by photolyzing ozone in the presence of water vapor. The concentrations of the hydrobromofluoroolefin and the reference compound were measured as a function of reaction time using an I-Series FTIR from Midac Corporation. The atmospheric lifetime was calculated from the reaction rates for the hydrobromofluoroolefin relative to the reference compounds and the reported lifetime of the reference compounds as shown below:
where τx is the atmospheric lifetime of hydrobromofluoroolefin, τr is the atmospheric lifetime of the reference compound, and kx and kr are the rate constants for the reaction of hydroxyl radical with hydrobromofluoroolefin and the reference compound, respectively.
The atmospheric lifetimes of Examples 1-3 were determined from their rates of reaction with hydroxyl radicals as described above and are reported in Table 3.

[3] = 25° C., longest hydrocarbon compatible without haze
[4] = 50° C., >23 = miscible with C23H48 without haze

Structure (SMILES)	LSH (n in CnH2n+2) [1, 3]	LSH (n in CnH2n+2) [1, 4]	Atmospheric Lifetime [2]
FC(=CCl)C(F)(F)C(F)(F)C(F)(F)F [Example 5, 1-chloro-2,3,3,4,4,5,5,5-pent-1-ene]	17	22	–
FC(=CBr)C(F)(F)C(F)(F)F [Example 2, 1-bromo-2,3,3,4,4,4-hexafluorobut-1-ene]	19	>23	ozonolysis. Likely <0.05 years
FC(=CCl)C(F)OC(F)(F)F (stereo not drawn) [Example 11, 1-chloro-2,3-difluoro-3-(trifluoromethoxy)prop-1-ene]	18	>23	–
FC(=CCl)C(F)(F)C(F)(F)F [Example 6, 1-chloro-2,3,3,4,4,4-but-1-ene]	19	–	–
FC(=CBr)C(F)(F)C(F)(F)C(F)F [Example 4, I-bromo-2,3,3,4,4,5,5-heptafluoropent-1-ene]	19	>23	–
FC(=CCl)C(F)(F)OC(F)(F)F [Example 7, 1-chloro-2,3,3-trifluoro-3-(trifluoromethoxy)prop-1-ene]	19	>23	–
FC(=CBr)C(F)F [Example 3, 1-bromo-2,3,3-trifluoroprop-1-ene]	19	>23	ozonolysis. Likely <0.05 years
FC(=CCl)N1C(F)(F)C(F)(F)OC(F)(F)C1(F)F [Example 8, 4-(2-chloro-1-fluoro-vinyl)-2,2,3,3,5,5,6,6-octafluoro-morpholine]	14	18	–
FC(=CCl)C(F)(F)N(C(F)(F)F)C(F)(F)C(F)(F)F [Example 9, 3-chloro-1,1,2-trifluoro-N-(1,1,2,2,2-pentafluoroethyl)-N-(trifluoromethyl)prop-2-en-1-amine]	13	17	–
FC(=CBr)C(F)(F)F [Example 1, 1-bromo-2,3,3,3-tetrafluoroprop-1-ene]	19	>23	ozonolysis. Likely <0.05 years
FC(=CCl)C(F)C(F)(F)F (stereo not drawn) [Example 10, 1-chloro-2,3,4,4,4-pentafluoro-but-1-ene]	19	>23	–
